Measured values reported in patent publication US20060073516A1, “Novel screening method” (priority 2002, published 2006).

Assays:
rCB7T084 = target: T1, rCB7T084 (Rattus norvegicus, UniProt Q7TN41, R55S); assay: Suppression of forskolin-increased intracellular cAMP level in rCB7T084-expressed CHO cells; type: cell-based; settings: 1 μM forskolin, ligand 1.0×10^−3 M-3.0×10^−7 M, compared to mock CHO cells (FIG. 6, FIG. 7)
T1 construct: expressed in transfected cells; host or cells: CHO cells
T1 sequence (Q7TN41 1-319 R55S): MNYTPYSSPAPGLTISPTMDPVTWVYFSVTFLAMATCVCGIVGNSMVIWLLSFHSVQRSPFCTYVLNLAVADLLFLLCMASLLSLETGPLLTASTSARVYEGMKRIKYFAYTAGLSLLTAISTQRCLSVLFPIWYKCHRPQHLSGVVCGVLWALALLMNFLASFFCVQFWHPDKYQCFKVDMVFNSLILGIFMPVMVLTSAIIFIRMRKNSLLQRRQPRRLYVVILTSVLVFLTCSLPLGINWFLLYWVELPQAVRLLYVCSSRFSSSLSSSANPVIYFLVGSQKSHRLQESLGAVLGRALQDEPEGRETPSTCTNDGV
Protocol: (§1) The TGR7- and rCB7T084-expressed CHO cells were washed with assay medium (HBSS (GibcoBRL) supplemented with 0.1% bovine serum albumin and 0.2 mM IBMX). Thereafter, the cells were incubated at 37° C. for 30 minutes under 5% CO2 conditions. β-Alanine (1.0×10^−3 M-3.0×10^−7 M) and L-carnosine (1.0×10^−3 M-3.0×10^−7 M) diluted with the assay medium in various concentrations were added and forskokin was then added thereto in 1 μM. The cells were incubated at 37° C. for 30 minutes under 5% CO2 conditions. The culture supernatant was discarded and the intracellular cAMP level was determined on a plate reader (ARVO multi-label counter, Wallac, Inc.), following the protocol of cAMP Screen Kit (Applied Biosystems, Inc.).

TGR7 [1] = target: T2, TGR7 (Homo sapiens, UniProt Q8TDS7); assay: Suppression of forskolin-increased intracellular cAMP level in TGR7-expressed CHO cells; type: cell-based; parameters: expressed in transfected cells; host or cells: CHO cells; settings: 1 μM forskolin, ligand 1.0×10^−3 M-3.0×10^−7 M, compared to mock CHO cells (FIG. 6, FIG. 7)
T2 sequence (Q8TDS7 whole entry): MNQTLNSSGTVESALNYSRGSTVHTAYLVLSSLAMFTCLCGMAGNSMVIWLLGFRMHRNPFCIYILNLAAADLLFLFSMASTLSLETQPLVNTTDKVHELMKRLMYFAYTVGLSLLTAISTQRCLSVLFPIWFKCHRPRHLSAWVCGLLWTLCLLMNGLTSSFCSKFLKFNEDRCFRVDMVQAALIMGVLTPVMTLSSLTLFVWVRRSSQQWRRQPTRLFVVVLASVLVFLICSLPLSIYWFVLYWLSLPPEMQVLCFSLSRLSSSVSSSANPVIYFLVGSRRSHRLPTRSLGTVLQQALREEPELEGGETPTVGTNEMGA
Protocol: as §1

[2] = test system: CHO-K1 cells into which the expression vector alone was introduced; settings: control CHO-K1 cells, expression vector alone (no insert); FLIPR (FIG. 3)
Protocol: (§2) The CHO-K1 cell line was cultured in HAM F-12 medium (Invitrogen) containing 10% fetal calf serum (Invitrogen), unless otherwise indicated. A day before transfection, 4.5×10^5 cells per 10 cm^2 were plated, followed by incubation in a CO2 incubator adjusted to a concentration of 5% CO2 at 37° C. for at least 15 hours. Using Lipofectamine reagent (Invitrogen), transfection was carried out by modifications of the method attached to the reagent. When a 6-well plate was used for the incubation, the following procedures were performed. First, 2 tubes each having a 1.5 ml volume were prepared and 100 μl each of Opti-MEM medium (Invitrogen) was dispensed in each tube. Next, 1 μg of the expression vector was charged in one tube and in another tube, 6 μl of Lipofectamine reagent was charged, which were mixed together. The mixture was settled for 20 minutes at room temperature. To the solution, 800 μl of Opti-MEM medium was added and the resulting solution mixture for transfection was added to the CHO-K1 cells, which had been previously washed with Opti-MEM medium. Then, the cells were incubated in a CO2 incubator for 6 hours. After the incubation, the cells were rinsed with PBS (Invitrogen), then scraped using 0.05% trypsin-EDTA solution (Invitrogen) and recovered by centrifugal operation. The cells obtained were counted and diluted to 5×10^4 cells per 200 μl of the medium. The dilution was dispensed onto a Black walled 96-well plate (Costar) in 200 μl each per well, followed by incubation overnight in a CO2 incubator. Various test samples were added to the CHO-K1 cells in which the receptor was transiently expressed by the transfection operation described above, whereby changes in the intracellular calcium ion level were determined using FLIPR (Molecular Device). In order to determine the changes in the intracellular calcium ion level on FLIPR, the cells were pre-teated by the following procedures. […] Following the pre-treatment above, changes in intracellular calcium level after addition of various test samples were measured on FLIPR.

TGR7 [3] = target: T2, TGR7; settings: β-alanine added in 10^−4 M to 10^−5 M; CHO-K1 cells expressing human TGR7; FLIPR, Fluo-3AM (FIG. 1)
Protocol: as §2

rat rCB7T084 = rat rCB7T084 (Rattus norvegicus, UniProt Q7TN41, R55S); settings: β-alanine added in 10^−4 M to 10^−5 M; CHO-K1 cells expressing rat rCB7T084; FLIPR, Fluo-3AM (FIG. 2)
Protocol: as §2

Row | Structure (SMILES) | decrease of the intracellular cAMP level increased by forskolin addition (rCB7T084) | decrease of the intracellular cAMP level increased by forskolin addition (TGR7 [1]) | response (increase in the intracellular calcium level) [2] | response (increase in the intracellular calcium level) (TGR7 [3]) | response (increase in the intracellular calcium level) (rat rCB7T084)
1 | NCCC(=O)N[C@@H](Cc1cnc[nH]1)C(=O)O [L-carnosine] | dose-dependent and specific decrease | dose-dependent and specific decrease | – | – | –
2 | NCCC(=O)O [β-alanine] | dose-dependent and specific decrease | dose-dependent and specific decrease | such response was not observed | specifically responsive | specifically responsive
